In BindingDB's records for doi:10.1016/s0960-894x(02)00790-4 (British Biotech Pharmaceuticals, 2002):
Structures can show the parent of a compound that is named as a salt.

These molecules were tested against Peptide deformylase (Escherichia coli) (UniProt P0A6K3) (assay: Compound was evaluated for inhibition of peptide deformylase, PDF.Ni of Escherichia coli).
Peptide deformylase (Escherichia coli), sequence (P0A6K3 whole entry, looked up): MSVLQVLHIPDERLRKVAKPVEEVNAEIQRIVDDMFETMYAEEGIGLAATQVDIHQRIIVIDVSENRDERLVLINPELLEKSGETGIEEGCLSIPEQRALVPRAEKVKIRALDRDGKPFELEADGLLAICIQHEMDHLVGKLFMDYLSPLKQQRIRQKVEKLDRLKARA
In the case of `CCCC[C@H](CN(O)C(N)=O)C(=O)N[C@H](C(=O)N(C)C)C(C)(C)C` [(2R)-2-{[(aminocarbonyl)(hydroxy)amino]methyl}-N-{(1S)-1-[(dimethylamino)carbonyl]-(2,2-dimethyl)-propyl}hexanamide], the IC50 is reported as > 1000 nM.
In the case of `CCCC[C@H](NCC(=O)O)C(=O)N[C@H](C(=O)N(C)C)C(C)(C)C` [[(S)-1-((S)-1-Dimethylcarbamoyl-2,2-dimethyl-propylcarbamoyl)-pentylamino]-acetic acid], the IC50 is reported as > 1000 nM.
`CCCCC(CC(=N)NO)C(=O)N[C@H](C(=O)N(C)C)C(C)(C)C` (stereo partly drawn) [(R)-2-(N-Hydroxycarbamimidoylmethyl)-hexanoic acid ((S)-1-dimethylcarbamoyl-2,2-dimethyl-propyl)-amide] was tested, and the IC50 was > 1000 nM.
In the case of `CCCC[C@H](CNC=O)C(=O)N[C@H](C(=O)N(C)C)C(C)(C)C` [(R)-2-Formylaminomethyl-hexanoic acid ((S)-1-dimethylcarbamoyl-2,2-dimethyl-propyl)-amide], the IC50 is reported as > 1000 nM.
For `CCCC[C@H](CC(=O)NO)C(=O)N[C@H](C(=O)N(C)C)C(C)(C)C` [(R)-2-Butyl-N*1*-((S)-1-dimethylcarbamoyl-2,2-dimethyl-propyl)-N*4*-hydroxy-succinamide], the IC50 was 1 nM.
In the case of `CCCCC(CP(=O)(O)O)C(=O)N[C@H](C(=O)N(C)C)C(C)(C)C` (stereo partly drawn) [[2-((S)-1-Dimethylcarbamoyl-2,2-dimethyl-propylcarbamoyl)-hexyl]-phosphonic acid], the IC50 is reported as > 1000 nM.
`CCCCC(C[PH](=O)O)C(=O)N[C@H](C(=O)N(C)C)C(C)(C)C` (stereo partly drawn) [[2-((S)-1-Dimethylcarbamoyl-2,2-dimethyl-propylcarbamoyl)-hexyl]-phosphinic acid] was tested, and the IC50 was > 1000 nM.
Molecule `CCCC[C@H](CC(=O)NN)C(=O)N[C@H](C(=O)N(C)C)C(C)(C)C` [(R)-2-Hydrazinocarbonylmethyl-hexanoic acid ((S)-1-dimethylcarbamoyl-2,2-dimethyl-propyl)-amide] has an IC50 of 200 nM.

Biological target: Peptide deformylase (Escherichia coli) (UniProt P0A6K3)
Assay: as above
Remark: another data set of the same source
`CCCC[C@H](CS)C(=O)N[C@@H](CCCCN)C(=O)Nc1ccc([N+](=O)[O-])cc1` [(S)-2-Mercaptomethyl-hexanoic acid [(S)-5-amino-1-(4-nitro-phenylcarbamoyl)-pentyl]-amide] was tested, and the Ki was 19 nM.

Biological target: Peptide deformylase (Escherichia coli) (UniProt P0A6K3)
Assay: as above
Remark: another data set of the same source
`CCCCC(CS)C(=O)NC(CCCNC(=N)N)C(=O)OC` (stereo not given) [5-Guanidino-2-(2-mercaptomethyl-hexanoylamino)-pentanoic acid methyl ester; TFA] was tested, and the Ki was 2500 nM.
